The values that follow come from PubChem BioAssay (NCI).

Test systems include A498 renal; HT29 colon; IGROV1 ovarian; NCI-H23 lung; OVCAR-8 ovarian; SK-MEL-2 melanoma; SK-MEL-5 melanoma; SW-620 colon; TK-10 renal; UACC-257 melanoma.
Assay in all cases: growth of human tumour cells (NCI), 48 h

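All cell lines were grown in 96-well plates and treated with compound for 48 hours. At the GI50, growth is halved. TGI: total growth inhibition.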 Bounds are passed on as bounds.

In the case of `C[CH2][Sn]([Cl])([Cl])[CH2]C`, the GI50 in the assay with A498 renal is 23.4 µM; in the assay on HT29 colon it was 55.2 µM; with IGROV1 ovarian it was above 100 µM; in the assay on NCI-H23 lung it was 19.9 µM; with OVCAR-8 ovarian it was above 100 µM; in the assay with SK-MEL-2 melanoma, 17 µM. The GI50 was 45.5 µM with SK-MEL-5 melanoma, 20.8 µM in the assay on SW-620 colon, 18.3 µM in the assay with TK-10 renal and 18.4 µM in the assay with UACC-257 melanoma. Besides, the TGI in the assay with A498 renal was 43.7 µM; in the assay with HT29 colon it was above 100 µM; in the assay with IGROV1 ovarian, above 100 µM; in the assay on NCI-H23 lung, 41.4 µM; in the assay on OVCAR-8 ovarian, above 100 µM; in the assay with SK-MEL-2 melanoma, 37.4 µM. Moreover, the TGI with SK-MEL-5 melanoma is above 100 µM; in the assay with SW-620 colon, 39.8 µM; with TK-10 renal, 32.4 µM; in the assay with UACC-257 melanoma, 35 µM.
As for `N=C(N)c1ccc(-c2ccc(-c3cccs3)s2)nc1`, the GI50 with A498 renal was 0.165 µM; in the assay on HT29 colon, 1.6 µM; in the assay with IGROV1 ovarian it was 1.76 µM; in the assay with NCI-H23 lung, 3.67 µM; in the assay with OVCAR-8 ovarian it was 1.59 µM; with SK-MEL-2 melanoma it was 2.19 µM. Moreover, the GI50 in the assay with SK-MEL-5 melanoma is 1.8 µM; in the assay with SW-620 colon it was 1.85 µM; in the assay with TK-10 renal, 1.03 µM; in the assay with UACC-257 melanoma, 1.74 µM. Moreover, the TGI in the assay on A498 renal turned out to be 0.74 µM; in the assay with HT29 colon, 3.83 µM; in the assay on IGROV1 ovarian it was 3.56 µM; in the assay with NCI-H23 lung, 18.9 µM; in the assay with OVCAR-8 ovarian it was 4.06 µM; in the assay with SK-MEL-2 melanoma, 4.2 µM. The TGI turned out to be 3.78 µM in the assay on SK-MEL-5 melanoma, 3.93 µM in the assay with SW-620 colon, 2.33 µM with TK-10 renal and 3.5 µM with UACC-257 melanoma.
Turning to `CS/C(c1ccccc1)=[N+](/C)[O-]`, the TGI in the assay with A498 renal, with HT29 colon, in the assay on IGROV1 ovarian, in the assay with NCI-H23 lung, in the assay on OVCAR-8 ovarian and in the assay with SK-MEL-2 melanoma was above 100 µM in each case. Further, the TGI in the assay with SK-MEL-5 melanoma, in the assay on SW-620 colon, in the assay with TK-10 renal and in the assay with UACC-257 melanoma was above 100 µM throughout.
With `COCCNC(=O)c1ccc(-c2nc3ccc4[nH]ncc4c3c3c2CCCC3)cc1`, the GI50 in the assay with A498 renal is 0.174 µM; in the assay with HT29 colon, 3.11 µM; with IGROV1 ovarian, 1.24 µM; in the assay on NCI-H23 lung it was 2.41 µM; with OVCAR-8 ovarian, 2.64 µM; in the assay on SK-MEL-2 melanoma, 2.16 µM. Further, the GI50 was 3.39 µM with SK-MEL-5 melanoma, 1.83 µM in the assay on SW-620 colon, 1.09 µM in the assay with TK-10 renal and 5.38 µM with UACC-257 melanoma. In addition, the TGI with A498 renal was 2.93 µM; with HT29 colon, above 100 µM; with IGROV1 ovarian, 10.9 µM; in the assay on NCI-H23 lung, 31.1 µM; in the assay on OVCAR-8 ovarian, above 100 µM; in the assay on SK-MEL-2 melanoma, 7.97 µM. In addition, the TGI was 26.3 µM in the assay on SK-MEL-5 melanoma, 13.9 µM with SW-620 colon, above 100 µM with TK-10 renal and above 100 µM with UACC-257 melanoma.
Turning to `COc1cc([C@@H]2OC(=O)C3C2C(=O)O[C@H]3c2cc(OC)c(OC)c(OC)c2)cc(OC)c1OC` (stereo not given in full), the TGI with A498 renal, in the assay on HT29 colon, in the assay with IGROV1 ovarian, in the assay with NCI-H23 lung, with OVCAR-8 ovarian and in the assay with SK-MEL-2 melanoma was above 100 µM in each case. The TGI in the assay on SK-MEL-5 melanoma, with SW-620 colon, with TK-10 renal and in the assay on UACC-257 melanoma was above 100 µM throughout.
With `O=C1C[C@H]2CC3(CC[C@H]2CN1)OCCO3`, the TGI in the assay with A498 renal, in the assay with HT29 colon, with IGROV1 ovarian, with NCI-H23 lung, with OVCAR-8 ovarian and in the assay on SK-MEL-2 melanoma was above 100 µM each time. Further, the TGI in the assay on SK-MEL-5 melanoma, with SW-620 colon, in the assay with TK-10 renal and in the assay with UACC-257 melanoma was above 100 µM in each case.
`Cc1cccc2c1C/C(=C1\CCc3c(C)cccc31)C2=O`: the TGI with A498 renal, with HT29 colon, with IGROV1 ovarian, with NCI-H23 lung, in the assay with OVCAR-8 ovarian and in the assay with SK-MEL-2 melanoma was above 100 µM throughout. Further, the TGI in the assay with SK-MEL-5 melanoma, in the assay with SW-620 colon, in the assay with TK-10 renal and in the assay with UACC-257 melanoma was above 100 µM each time.
For `C/C(=C\CC[C@]1(C)OC(C)(C)OC1CC/C(C)=C/CO[Si](c1ccccc1)(c1ccccc1)C(C)(C)C)CC/C=C/CO[Si](C)(C)C(C)(C)C` (stereo not given in full), the TGI in the assay on A498 renal, in the assay on HT29 colon, with IGROV1 ovarian, in the assay with NCI-H23 lung, in the assay on OVCAR-8 ovarian and in the assay on SK-MEL-2 melanoma was above 100 µM throughout. For the same molecule, the TGI with SK-MEL-5 melanoma, in the assay with SW-620 colon, in the assay on TK-10 renal and in the assay with UACC-257 melanoma was above 100 µM each time.
In the case of `O=C1/C(=C/c2ccc(Cl)cc2)COc2ccc(O)c(O)c21`, the GI50 is 2.95 µM in the assay on A498 renal; 1.92 µM in the assay with HT29 colon; 0.438 µM in the assay with IGROV1 ovarian; 1.71 µM with NCI-H23 lung; 1.11 µM with OVCAR-8 ovarian; 2.51 µM in the assay with SK-MEL-2 melanoma. Further, the GI50 was 1.51 µM in the assay on SK-MEL-5 melanoma, 0.838 µM in the assay on SW-620 colon, 1.71 µM in the assay on TK-10 renal and 1.65 µM in the assay on UACC-257 melanoma. For the same molecule, the TGI in the assay with A498 renal came to 9.19 µM; in the assay with HT29 colon, 3.98 µM; in the assay with IGROV1 ovarian, 2.16 µM; with NCI-H23 lung it was 4.09 µM; in the assay on OVCAR-8 ovarian, 12.8 µM; in the assay on SK-MEL-2 melanoma it was 7.63 µM. Moreover, the TGI was determined as 2.9 µM with SK-MEL-5 melanoma, 2.94 µM with SW-620 colon, 3.19 µM in the assay on TK-10 renal and 3.88 µM with UACC-257 melanoma.
